{"source": "patent US12643899B2", "about": "“Antiviral agents, uses thereof and methods for their preparation” (The University of British Columbia, priority 2020, dated 2026)", "key": {"[1]": {"system": "ZIKV", "experiment": "ZIKV viral dsRNA imaging (Cellomics ArrayScan VTI) in A549 cells", "assay_type": "cell-based, Zika virus", "settings": "15 μM, 1 h pre-treatment, MOI 1, 48 h"}, "[2]": {"system": "ZIKV", "experiment": "ZIKV infectivity by semisolid overlay plaque assay after pre-treatment of A549 and U87 MG cells", "assay_type": "cell-based, Zika virus", "settings": "CD 15 μM, A549 and U87 MG cells, FIG. 3"}, "[3]": {"system": "SARS-CoV-2", "experiment": "SARS-CoV-2 intracellular viral RNA and nucleocapsid protein in Caco-2 cells", "assay_type": "cell-based", "settings": "Human Caco-2 cells, 3 hours pre-treatment"}, "[4]": {"system": "DENV", "experiment": "Activity against DENV (summary statement, method not described)", "assay_type": "cell-based, dengue virus"}, "[5]": {"system": "ZIKV", "experiment": "NS1 and dsRNA in ZIKV-infected brain organoids", "assay_type": "cell-based, Zika virus", "settings": "10 μM, 69 hours, MOI 1", "procedure": "FIG. 17 is a schematic showing the general method 20 used in Example 6. Referring to FIG. 17, following growth of the brain organoids in STEMdiff™ media 22 (4 organoids/well), the media was aspirated 24. Then, 500 μL ZIKV at the desired MOI in fresh media was added 26 and the brain organoids incubated at 37° C. for 3 hours with gentle shaking 28. The brain organoids were then washed with 2×1 mL PBS 30, and fresh media and CA or cladoniamide C (CC) added to the desired concentration 32 prior to incubation for the desired time at 37° C. 34. The supernatant was collected and frozen at −86° C. 36 prior to analysis and the brain organoids transferred to an Eppendorf with paraformaldehyde for electron microscopy 38.\nFIG. 18 is a plot showing the anti-ZIKV activity of cladoniamide A (incubation with 1 μM CA for 72 hours; 2 biological replicates, each with 4 organoids/well) using four brain organoid systems. There was a greater than 4-log reduction in extracellular ZIKV titer when treated with CA. […] FIGS. 20 and 21 show plots showing the anti-ZIKV activity of CA and CC (incubation with 10 μM CA or CC for 69 hours, MOI 1; 4 technical replicates as there were 4 organoids/[…])."}, "[6]": {"system": "A549 cells", "experiment": "MTS cytotoxicity assay in A549 cells", "assay_type": "cell-based, human", "settings": "48 h", "procedure": "An MTS assay was performed to determine the cytotoxicity concentration 50% (CC50) of cladoniamide A (CA) in human A549 cells, a cell line from human lung carcinoma. Various concentrations of CA were added to cultured A549 cells and incubated (37° C., 5% CO2) for 48 h. Cell viability was then measured by an MTS assay kit (CellTiter 96™ Aqueous One Solution cell proliferation assay, Promega) according to the manufacturer's instructions. Curve fitting was performed in Igor Pro (WaveMetrics) using a hyperbolic fit algorithm (FIG. 1). The CC50 of CA in A549 cells was determined to be 54±5 μM. An MTS assay was also performed to determine the CC50 of CA in human U87 MG cells, a cell line from human brain. Various concentrations of CA were added to cultured U87 MG cells and incubated (37° C., 5% CO2) for 48 h. Cell viability was then measured by an MTS assay kit (CellTiter 96 Aqueous One Solution cell proliferation assay, Promega) according to the manufacturer's instructions. Curve fitting was performed in Igor Pro (WaveMetrics) using a hyperbolic fit algorithm (FIG. 2)."}, "[7]": {"system": "ZIKV", "experiment": "Secreted NS1 (sNS1) ELISA, ZIKV-infected A549 cells", "assay_type": "cell-based, Zika virus", "settings": "24 h pre-treatment, MOI 1.0, 2 d", "procedure": "Error bars represent SD among 2 biological replicates.\nCultured A549 cells were treated with various concentrations of CA or PF-429242 for 24 h before being washed with PBS and inoculated with ZIKV (ZIKV strain VR 1843, Puerto Rico, 2015; ATCC) at MOI 1.0 for 1 h. Following the removal of the inoculum, cells were incubated in fresh media for 2 d before the supernatant was collected, clarified, and secreted NS1 protein abundance was measured by an ELISA kit (BioFront Technologies) according to the manufacturer's instructions. Curve fitting was performed in Igor Pro (WaveMetrics) using a hyperbolic fit algorithm (FIG. 4; upper and middle plots) and IC50 and TI values obtained. IC50 and TI values were also obtained for CA via plaque assay (PFU; FIG. 4, lower plot). FIG. 4 (upper plot) is an ED50 curve for the PF inhibitor based on the detection of secreted Non-Structural protein 1 (sNS1), secreted viral biomarker. sNS1 was detected using an Elisa test (commercially available). FIG. 4 (middle plot) is an ED50 curve for CA based on the detection of secreted Non-Structural protein 1 (sNS1), secreted viral biomarker. sNS1 was detected using an Elisa test (commercially available)."}}, "note": "pIC50: −log10 of the molar value."}
{"smiles": "CNC(=O)[C@@]1(O)C(=O)n2c(c(OC)c3ccccc32)-c2[nH]c3ccc(Cl)cc3c21", "note": "[CF, (11R)-7-chloro-11-hydroxy-20-methoxy-N-methyl-12-oxo-3,13-diazapentacyclo[11.7.0.0^2,10.0^4,9.0^14,19]icosa-1(20),2(10),4(9),5,7,14,16,18-octaene-11-carboxamide]", "values": [{"measurement": "activity against ZIKV (viral dsRNA)", "setting": "[1]", "value": "did not show any inhibitory effect"}]}
{"smiles": "CNC(=O)[C@]1(O)C(=O)c2c([nH]c3ccc(Cl)cc23)-c2c(OC)c3ccccc3n21", "note": "[CD, (12R)-7-chloro-12-hydroxy-20-methoxy-N-methyl-11-oxo-3,13-diazapentacyclo[11.7.0.0^2,10.0^4,9.0^14,19]icosa-1(20),2(10),4(9),5,7,14,16,18-octaene-12-carboxamide]", "values": [{"measurement": "inhibitory effect on production of infectious ZIKV virions", "setting": "[2]", "value": "did not show any inhibitory effect"}, {"measurement": "antiviral effect against SARS-CoV-2", "setting": "[3]", "value": "no antiviral effect"}, {"measurement": "activity against DENV", "setting": "[4]", "value": "no activity"}, {"measurement": "activity against ZIKV (viral dsRNA)", "setting": "[1]", "value": "did not show any inhibitory effect"}]}
{"smiles": "CNC(=O)[C@]1(O)C(=O)c2c([nH]c3ccc(Cl)cc23)-c2c(OC)c3cc(Cl)ccc3n21", "note": "[CE, (12R)-7,17-dichloro-12-hydroxy-20-methoxy-N-methyl-11-oxo-3,13-diazapentacyclo[11.7.0.0^2,10.0^4,9.0^14,19]icosa-1(20),2(10),4(9),5,7,14(19),15,17-octaene-12-carboxamide]", "values": [{"measurement": "activity against ZIKV (viral dsRNA)", "setting": "[1]", "value": "did not show any inhibitory effect"}]}
{"smiles": "COc1c2n(c3ccccc13)[C@]1(O)C(=O)N(C)C(=O)[C@]1(O)c1c-2[nH]c2ccccc12", "note": "[CC, (11S,15R)-11,15-dihydroxy-23-methoxy-13-methyl-3,13,16-triazahexacyclo[14.7.0.0^2,10.0^4,9.0^11,15.0^17,22]tricosa-1(23),2(10),4,6,8,17,19,21-octaene-12,14-dione]", "values": [{"measurement": "anti-ZIKV activity in brain organoids (NS1, dsRNA)", "setting": "[5]", "value": "showed anti-ZIKV activity"}]}
{"smiles": "CCN(CC)Cc1ccc(C(=O)N(CCc2ccccc2OC)[C@@H]2CCNC2)cc1", "note": "[PF, PF-429242, reference compound]", "values": [{"measurement": "CC50", "setting": "[6]", "value": 69, "unit": "µM"}, {"measurement": "pIC50", "setting": "[7]", "value": 4.89}]}
